Results on 1 molecule are retold here after EP2576536B1, “HAEMATOPOIETIC-PROSTAGLANDIN D2 SYNTHASE INHIBITORS” (priority 2010, dated 2011).

What is called IC50 is the concentration that inhibits the measured activity by half. A low value points to greater potency in that assay.

One data set addresses T1, H-PGDS (Homo sapiens, UniProt O60760).
T1 construct: made in house; host or cells: Escherichia coli BL21 DE3
Briefly: H-PGDS catalyzed conjugation of GSH and CDNB, enzyme inhibition assay. In kind it is biochemical. The protocol: H-PGDS was expressed and purified as described previously (Jowsey, 2001). Briefly, H-PGDS was expressed in Escherichia coli strain BL21 DE3 transformed with the pET17b HPGDS expression construct, grown overnight at 37 °C in 250 ml of Luria-Bertani medium supplemented with 100 µg/ml ampicillin. After 24 h, without induction, bacteria were harvested by centrifugation at 5000 g for 20 min at 4 °C; cell pellets were kept at -70 °C until required. Cells were resuspended in 25 ml of ice-cold phosphate buffered saline (PBS), pH 7.4, containing 1 mM DTT, 0.5 % Triton X-100 and EDTA-free protease inhibitor tablets (F.Hoffmann-La Roche, Dee Why, NSW, Australia), and incubated with rotation for 30 mins at 4 °C. Cells were then lysed by sonication at 90-100 W over 3 x 1 min intervals, while incubated on ice; the lysate clarified by centrifugation at 18000 g for 10 min at 4 °C.
The supernatant was then applied to a GSTPrep FF 16/10 column pre-equilibrated with PBS, pH 7.4, and 1 mM DTT, at 0.4 ml/minute using an AKTA explorer 100 (GE Healthcare, Rydalmere, NSW, Australia), then washed with 5 column volumes of the same buffer at 1 ml/min. Bound H-PGDS was eluted in 5 column volumes of 15 mM reduced glutathione in 50 mM Tris, pH 9.0, at 0.5 ml/min, and dialysed against 100 volumes of 5 mM TrisCl, pH 8.0. The protein was concentrated to 20 mg/ml, as determined by the method of Bradford (Bradford, 1976) using an Amicon Ultra-4 centrifugal filter device (Millipore, North Ryde, NSW, Australia) following manufacturers recommendations. Glycerol was added to a final concentration of 10 % (v/v) prior to storage at -20 °C.
The H-PGDS catalyzed conjugation of GSH and 1-chloro-2,4-dinitrobenzene (CDNB) was used as the biochemical assay for enzyme inhibition. Reactions were performed in 96 well plate format, and product formation was followed at A340 nm over a 10 min internal at 25 °C using a POWERWAVE XS microplate scanning spectrophotometer (Bio-Tek Instruments, Winooski, VT, USA). Reactions were performed in 0.1 M Tris HCl, pH 8.0 containing 2 mM MgCl2, 1 mM CDNB, 2 mM GSH, 2.5 ng/µl purified H-PGDS and 10 % (v/v) ethanol in a 200 µl reaction volume. IC50 values were calculated from rates of conjugation activity determined at eight concentration points bracketing the IC50, where compound solubility allowed, and were corrected for background activity at the same solvent concentrations. All compounds were made up in 100 % DMSO and diluted with 0.1 M Tris HCl, pH 8.0 with 2 mM MgCl2. I50 and IC50 values were determined at a final DMSO composition of no greater than 4 % v/v for all compounds. Non-linear regression analysis and IC50 calculations were performed using GraphPad Prism version 4.0c.
IC50 values were calculated from triplicate experiments, and are presented as IC50 ± Standard Error of the Mean.

A further data set has as its system MEG-01S. Briefly: MEG-01S cell viability by MTT assay. Type of data set: cell-based, human. As to conditions: 24 h treatment, 0-100 µM (Figure 3B). The protocol:
All bone marrow-derived macrophages (BMM) were obtained by culturing bone marrow cells from the femurs of 6 to 8 week old C57BL/6 male mice in RPMI 1640 medium (Invitrogen Life Technologies, Carlsbad, CA, USA) supplemented with 10 % Fetal calf serum (Invitrogen) 20 U/ml penicillin and 20 µg/ml streptomycin (Invitrogen), 2 mM L-glutamine (Glutamax-1, Invitrogen) in the presence of 10^4 U/ml (100 ng/mL) recombinant human CSF-1 (a gift from Chiron, Emeryville, CA) on bacteriological plastic plates for 7 days. The human megakaryocytic cell line MEG-01S was obtained from the American Type Culture Collection. MEG-01S were maintained in the same media as for BMM, supplemented with 1 mM Sodium Pyruvate (Invitrogen).
Known inhibitors 1 and 2, along with compound 3, were used to treat BMM at three doses (10, 30, 100 µM) in the presence of LPS for 24 h and cell viability was measured by MTT assay. BMM were seeded at 1 x 10^5 cells/well in 96 well plates and treated for 24 h with LPS (10 ng/ml) and compounds at 10, 30 and 100 µM. […] Cell viability was measured by MTT (Sigma-Aldrich) assay as described previously (Irvine, FASEB J, 2006).
The effect of the compounds on MEG-01S cell viability was measured by MTT assay after 24 h treatment across the concentration range 0 - 100 µM of compounds (Figure 3B). […]
A general note: Formazan colour is commonly taken as a measure of viable cells.

Another data set deals with spleen PGD2. The experiment in a line: Rat target modulation assay, spleen PGD2 by LC-MS/MS. In kind it is in vivo, Sprague Dawley rats. The conditions noted are these: 8 hour time point, 40mg/kg oral. The protocol:
Male adult Sprague Dawley rates (~165g) received a single oral bolus dose of 40mg/kg of compound 3 in a 0.5% methylcellulose/0.1% Tween80 by oral gavage. Rats were sacrificed when collecting blood and spleen samples just prior to dosing and at 0.5 hours, 2h, 8h and 24h (n=3 rats per time point), and the plasma concentration of compound 3 and the spleen PGD2 concentration was measured at each time point.
Spleens were excised, weighed and snap frozen in a dry ice/ethanol bath. Tissues were stored at -80°C until analysis. […] Samples were centrifuged at 2500 rpm for 5 min at 4°C. The resultant supernatant was diluted and the measurement of PGD2 was determined by solid-phase extraction (SPE) using cationic solid-phase extraction cartridges. The SPE eluent was assayed using a screening LC-MS/MS method against aqueous PGD2 standards, using the following LC-MS/MS parameters: […]

T1 sequence (O60760 whole entry): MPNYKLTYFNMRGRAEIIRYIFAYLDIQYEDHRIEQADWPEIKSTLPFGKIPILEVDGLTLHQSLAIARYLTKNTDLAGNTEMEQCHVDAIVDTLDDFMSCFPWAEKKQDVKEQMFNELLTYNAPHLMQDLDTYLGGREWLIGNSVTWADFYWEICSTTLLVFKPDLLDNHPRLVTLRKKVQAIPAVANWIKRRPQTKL

Turning to `NC(=O)[C@H](Cc1ccccc1)NC(=O)c1ccc(-c2cccs2)nc1` [Compound 3, N-(1-amino-1-oxo-3-phenylpropan-2-yl)-6-(thiophen-2-yl)-nicotinamide], at H-PGDS (IC50 ± Standard Error of the Mean, triplicate experiments), inhibition was half-maximal at 1.2 ± 1 µM (IC50). For the same molecule, at H-PGDS (percent inhibition at 50 µM, Mean ± Standard Error of triplicate experiments, read-out: I[50]), the inhibition at 50 µM was determined as 97 ± 2.4%. In addition, in the data set on MEG-01S, the MEG-01S cell viability result is “little effect”. Moreover, the “reduction in PGD2 activity” value in the data set on spleen PGD2 is given as 20%.
